Results from US9504675B2, “Alpha-ketoheterocycles and methods of making and using” (The Scripps Research Institute, priority 2011, dated 2016).

Target: T1, recombinant rat FAAH (rFAAH) (Rattus norvegicus, UniProt P97612)
T1 construct: The truncated rat FAAH (rFAAH) was expressed in E. coli and purified; made in house; host or cells: Escherichia coli
T1 sequence (P97612 30-579 limits assumed): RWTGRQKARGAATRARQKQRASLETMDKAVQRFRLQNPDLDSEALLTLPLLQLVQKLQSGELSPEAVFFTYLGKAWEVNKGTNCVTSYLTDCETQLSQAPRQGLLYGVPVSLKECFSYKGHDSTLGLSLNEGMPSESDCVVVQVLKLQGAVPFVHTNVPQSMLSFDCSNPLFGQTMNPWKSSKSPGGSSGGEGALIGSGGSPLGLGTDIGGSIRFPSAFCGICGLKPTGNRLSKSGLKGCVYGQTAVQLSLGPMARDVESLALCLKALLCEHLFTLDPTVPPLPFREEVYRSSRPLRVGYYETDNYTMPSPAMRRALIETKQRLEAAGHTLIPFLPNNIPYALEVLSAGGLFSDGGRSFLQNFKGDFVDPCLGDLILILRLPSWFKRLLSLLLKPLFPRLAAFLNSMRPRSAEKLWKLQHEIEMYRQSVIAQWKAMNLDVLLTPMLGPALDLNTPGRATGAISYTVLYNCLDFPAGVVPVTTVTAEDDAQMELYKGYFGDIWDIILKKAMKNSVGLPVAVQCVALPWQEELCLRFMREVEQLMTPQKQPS
Assay: Enzyme assay: inhibition of purified recombinant rat FAAH, 14C-oleamide hydrolysis, Ki by Dixon plot
Assay type: biochemical
Settings: Ki, Table 2, (S)-enantiomer, 1,2,3,4-tetrahydronaphthalene C2 acyl side chain
Procedure: Enzyme assays were performed at 20-23° C. with purified recombinant rat FAAH expressed in Escherichia coli or with solubilized COS-7 membrane extracts from cells transiently transfected with human FAAH cDNA (where specifically indicated) in a buffer of 125 mM Tris/1 mM EDTA/0.2% glycerol/0.02% Triton X-100/0.4 mM Hepes, pH 9.0.
^14C-labeled oleamide was prepared from ^14C-labeled oleic acid. The truncated rat FAAH (rFAAH) was expressed in E. coli and purified. The purified recombinant rFAAH was used in the inhibition assays unless otherwise indicated. The full-length human FAAH (hFAAH) was expressed in COS-7 cells as described, and the lysate of hFAAH-transfected COS-7 cells was used in the inhibition assays where explicitly indicated.
The inhibition assays were performed as follows. […] The enzyme reaction was terminated by transferring 20 μL of the reaction mixture to 500 μL of 0.1 N HCl at three different time points. The ^14C-labeled oleamide (substrate) and oleic acid (product) were extracted with EtOAc and analyzed by TLC as detailed. The Ki of the inhibitor was calculated using a Dixon plot as described (standard deviations are provided in the Supporting Information tables).

| SMILES | Ki |
| --- | --- |
| O=C(c1ncco1)C1CCc2cc(-c3ccccc3)ccc2C1 (single isomer, unassigned) [(S)-3, Oxazol-2-yl(6-phenyl-1,2,3,4-tetrahydronaphthalen-2-yl)methanone] | 57 nM |
| COC(=O)c1cnc(C(=O)C2CCc3cc(-c4ccccc4)ccc3C2)o1 (single isomer, unassigned) [(S)-4, Methyl 2-(6-Phenyl-1,2,3,4-tetrahydronaphthalene-2-carbonyl)oxazole-5-carboxylate] | 55 nM |
| N#Cc1cnc(C(=O)C2CCc3cc(-c4ccccc4)ccc3C2)o1 (single isomer, unassigned) [(S)-5, 2-(6-Phenyl-1,2,3,4-tetrahydronaphthalene-2-carbonyl)oxazole-5-carbonitrile] | 3.4 nM |
| O=C(c1ncc(-c2ccccn2)o1)C1CCc2cc(-c3ccccc3)ccc2C1 (single isomer, unassigned) [(S)-6, (6-Phenyl-1,2,4-tetrahydronaphthalen-2-yl)(5-(pyridin-2-yl)oxazol-2-yl)methanone] | 7.2 nM |
| COC(=O)c1cccc(-c2cnc(C(=O)C3CCc4cc(-c5ccccc5)ccc4C3)o2)n1 (single isomer, unassigned) [(S)-7, Methyl 6-(2-(6-Phenyl-1,2,3,4-tetrahydronaphthalene-2-carbonyl)oxazol-5-yl)picolinate] | 27 nM |
| O=C(O)c1cccc(-c2cnc(C(=O)C3CCc4cc(-c5ccccc5)ccc4C3)o2)n1 (single isomer, unassigned) [(S)-8, 6-(2-(6-Phenyl-1,2,3,4-tetrahydronaphthalene-2-carbonyl)oxazol-5-yl)picolinic acid] | 39 nM |
| O=C(c1ncco1)C1CCc2cc(Oc3ccccc3)ccc2C1 (single isomer, unassigned) [(S)-9, Oxazol-2-yl(6-phenoxy-1,2,3,4-tetrahydronaphthalen-2-yl)methanone] | 2.2 nM |
| COC(=O)c1cnc(C(=O)C2CCc3cc(Oc4ccccc4)ccc3C2)o1 (single isomer, unassigned) [(S)-10, Methyl 2-(6-Phenoxy-1,2,3,4-tetrahydronaphthalene-2-carbonyl)oxazole-5-carboxylate] | 5.4 nM |
| N#Cc1cnc(C(=O)C2CCc3cc(Oc4ccccc4)ccc3C2)o1 (single isomer, unassigned) [(S)-11, 2-(6-Phenoxy-1,2,3,4-tetrahydronaphthalene-2-carbonyl)oxazole-5-carbonitrile] | 1.3 nM |
| O=C(c1ncc(-c2ccccn2)o1)C1CCc2cc(Oc3ccccc3)ccc2C1 (single isomer, unassigned) [(S)-12, (6-Phenoxy-1,2,3,4-tetrahydronaphthalen-2-yl)(5-(pyridin-2-yl)oxazol-2-yl)methanone] | 4.4 nM |
| COC(=O)c1cccc(-c2cnc(C(=O)C3CCc4cc(Oc5ccccc5)ccc4C3)o2)n1 (single isomer, unassigned) [(S)-13, Methyl 6-(2-(6-Phenoxy-1,2,3,4-tetrahydronaphthalene-2-carbonyl)oxazol-5-yl)picolinate] | 2.2 nM |
| O=C(O)c1cccc(-c2cnc(C(=O)C3CCc4cc(Oc5ccccc5)ccc4C3)o2)n1 (single isomer, unassigned) [(S)-14, 6-(2-(6-Phenoxy-1,2,3,4-tetrahydronaphthalene-2-carbonyl)oxazol-5-yl)picolinic acid] | 25 nM |

Same assay, conditions: Ki, Table 4, (R)-enantiomer, additional FAAH inhibitors

| SMILES | Ki |
| --- | --- |
| O=C(c1nnc(-c2ccccn2)o1)C1CCc2cc(Oc3ccccc3)ccc2C1 (single isomer, unassigned) [(R)-36, (6-Phenoxy-1,2,3,4-tetrahydronaphthalen-2-yl)(5-(pyridin-2-yl)-1,3,4-oxadiazol-2-yl)methanone] | 6.3 nM |
| O=C(c1ncco1)C1CCc2ccccc2C1 (single isomer, unassigned) [(R)-37, Oxazol-2-yl(1,2,3,4-tetrahydronaphthalen-2-yl)methanone] | 12000 nM |
| O=C(c1ncc(-c2ccccn2)o1)C1CCc2ccccc2C1 (single isomer, unassigned) [(R)-38, (5-(Pyridin-2-yl)oxazol-2-yl)(1,2,3,4-tetrahydronaphthalen-2-yl)methanone] | 3200 nM |
